Assays:
[1] = Induction of apoptosis in bovine BL3 cells assessed as viable cells after 24 hrs by annexin V/propidium iodide staining-based FACS analysis; type: functional, Bos taurus; parameters: concentration or dose not given beside the values
[2] = Induction of apoptosis in bovine BL3 cells assessed as late apoptotic cells after 24 hrs by annexin V/propidium iodide staining-based FACS analysis; type: functional, Bos taurus; parameters: concentration or dose not given beside the values
[3] = Induction of apoptosis in bovine BL3 cells assessed as necrotic after 24 hrs by annexin V/propidium iodide staining-based FACS analysis; type: functional, Bos taurus; parameters: concentration or dose not given beside the values
[4] = Induction of apoptosis in bovine BL3 cells assessed as early apoptotic cells after 24 hrs by annexin V/propidium iodide staining-based FACS analysis; type: functional, Bos taurus; parameters: concentration or dose not given beside the values
[5] = Antiproliferative activity against Theileria parva-induced proliferation of bovine B lymphocyte assessed as inhibition of [3H]thymidine uptake after 48 hrs; type: functional; details: Bos taurus, B-cell
[6] = Antiproliferative activity against Theileria parva-induced proliferation of bovine BL3 cells assessed as inhibition of [3H]thymidine uptake after 32 hrs; type: functional, Bos taurus

Row | Compound | Activity [1] [%] | Activity [2] [%] | Activity [3] [%] | Activity [4] [%] | IC50 [5] [µM] | inhibition (INH) [6] [%]
1 | O=C(O)c1cn(C2CC2)c2cc(N3CCNCC3)c(F)cc2c1=O [CIPROFLOXACIN] | 98.63 | 0.25 | 0.03 | 1.03 | 123 | 
2 | CCC[C@@H]1C[C@@H](C(=O)N[C@@H]([C@H]2O[C@H](SC)[C@H](O)[C@@H](O)[C@H]2O)[C@H](C)Cl)N(C)C1 [CLINDAMYCIN] | 92.64 | 0 | 0 | 7.36 | > 400 | 28
3 | CC(Oc1ccc(Oc2nc3ccc(Cl)cc3o2)cc1)C(=O)O (stereo not drawn) [FENOXAPROP] | 83.78 | 0.06 | 0.18 | 15.98 | 262 | >75
4 | CO[C@H]1/C=C/O[C@@]2(C)Oc3c(C)c(O)c4c(O)c(c(/C=N/N5CCN(C)CC5)c(O)c4c3C2=O)NC(=O)/C(C)=C\C=C\[C@H](C)[C@H](O)[C@@H](C)[C@@H](O)[C@@H](C)[C@H](OC(C)=O)[C@@H]1C [RIFAMPIN] | 97.57 | 0 | 0 | 2.43 | 96 | >75
5 | CN[C@@H]1C[C@H]2O[C@@](C)([C@@H]1OC)n1c3ccccc3c3c4c(c5c6ccccc6n2c5c31)C(=O)NC4 [STAUROSPORINE] | 61.57 | 14.54 | 0.08 | 23.83 |  | 
6 | Oc1cc(Cl)ccc1Oc1ccc(Cl)cc1Cl [TRICLOSAN] | 45.87 | 9.98 | 0.13 | 44.02 | 20 | >75

Reference: ChEMBL document CHEMBL1629644, “Theileria apicoplast as a target for chemotherapy” (Antimicrob Agents Chemother, 2009)
